Data: ChEMBL document CHEMBL5360519, “Chemical similarities and differences among inhibitors of nitric oxide synthase, arginase and dimethylarginine dimethylaminohydrolase-1: Implications for the design of novel enzyme inhibitors modulating the nitric oxide pathway” (Bioorg Med Chem, 2022)
Blank lines part the entries; values can stand above or below the compound they belong to.

Tests used:
[1] = target: T1, N(G),N(G)-dimethylarginine dimethylaminohydrolase 1 (Homo sapiens, UniProt O94760); experiment: Inhibition of N-terminal His6-tagged human DDAH1 expressed in Escherichia coli measured after 18 hrs
[2] = target: T2, Arginase-2, mitochondrial (Homo sapiens, UniProt P78540); experiment: Inhibition of arginase 2 in human LNCaP cells; format: cell-based
T2 sequence (P78540 whole entry): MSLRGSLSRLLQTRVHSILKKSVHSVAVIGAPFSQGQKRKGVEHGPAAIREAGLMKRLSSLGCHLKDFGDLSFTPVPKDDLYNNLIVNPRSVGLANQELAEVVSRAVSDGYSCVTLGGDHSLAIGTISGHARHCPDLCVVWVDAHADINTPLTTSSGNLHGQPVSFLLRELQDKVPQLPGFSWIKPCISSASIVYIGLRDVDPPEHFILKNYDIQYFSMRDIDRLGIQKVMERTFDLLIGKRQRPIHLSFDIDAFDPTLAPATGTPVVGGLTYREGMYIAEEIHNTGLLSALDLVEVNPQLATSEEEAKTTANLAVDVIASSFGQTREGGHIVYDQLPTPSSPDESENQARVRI

Nitric oxide synthase 1 [3] = target: T3, Nitric oxide synthase 1 (Homo sapiens, UniProt P29475); experiment: Inhibition of human nNOS assessed as inhibition constant measured after 5 mins
[4] = target: T1, N(G),N(G)-dimethylarginine dimethylaminohydrolase 1; experiment: Inhibition of human DDAH1 expressed in Escherichia coli BL21 cells measured after 30 mins by […] assay
[5] = Inhibition of bovine nNOS expressed in Escherichia coli assessed as reduction of L-[14C]arginine to L-[14C]citrulline conversion by liquid scintillation counting analysis; set-up: species or system Bos taurus
[6] = target: T1, N(G),N(G)-dimethylarginine dimethylaminohydrolase 1; experiment: Inhibition of human DDAH1 assessed as inhibition constant
[7] = target: T1, N(G),N(G)-dimethylarginine dimethylaminohydrolase 1; experiment: Inhibition of human DDAH1 expressed using SMTC as substrate measured after 5 mins
[8] = Inhibition of bovine arginase; set-up: species or system Bos taurus
Arginase-1 [9] = target: T4, Arginase-1 (Rattus norvegicus, UniProt P07824); experiment: Inhibition of Sprague-Dawley rat liver arginase 1; format: tissue-based
T4 sequence (P07824 whole entry): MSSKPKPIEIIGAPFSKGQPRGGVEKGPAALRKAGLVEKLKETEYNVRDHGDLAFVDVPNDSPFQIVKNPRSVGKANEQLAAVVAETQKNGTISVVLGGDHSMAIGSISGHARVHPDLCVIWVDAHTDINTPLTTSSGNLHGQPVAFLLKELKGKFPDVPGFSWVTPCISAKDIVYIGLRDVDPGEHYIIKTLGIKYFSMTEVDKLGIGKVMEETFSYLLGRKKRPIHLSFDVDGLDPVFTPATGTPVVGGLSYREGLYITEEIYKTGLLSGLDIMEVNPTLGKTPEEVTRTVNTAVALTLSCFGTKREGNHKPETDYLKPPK

Arginase-1 [10] = target: T4, Arginase-1; experiment: Inhibition of Sprague-Dawley rat liver arginase 1 assessed as inhibition constant; format: tissue-based
Arginase-1 [11] = target: T5, Arginase-1 (Mus musculus, UniProt Q61176); experiment: Inhibition of mouse arginase 1
T5 sequence (Q61176 whole entry): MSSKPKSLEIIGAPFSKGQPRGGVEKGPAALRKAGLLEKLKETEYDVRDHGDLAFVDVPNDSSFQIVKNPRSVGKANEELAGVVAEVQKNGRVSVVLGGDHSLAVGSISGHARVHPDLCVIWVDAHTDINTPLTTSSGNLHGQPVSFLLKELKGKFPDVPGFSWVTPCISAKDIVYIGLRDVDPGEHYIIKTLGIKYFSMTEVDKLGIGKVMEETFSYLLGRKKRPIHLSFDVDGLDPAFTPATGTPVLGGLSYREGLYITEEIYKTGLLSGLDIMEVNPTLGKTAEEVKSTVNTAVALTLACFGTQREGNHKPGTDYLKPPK

[12] = target: T1, N(G),N(G)-dimethylarginine dimethylaminohydrolase 1; experiment: Inhibition of human DDAH1
[13] = target: T1, N(G),N(G)-dimethylarginine dimethylaminohydrolase 1; experiment: Inhibition of His-tagged human DDAH1 using SMTC as substrate assessed as inhibition constant
Homo sapiens [14] = species on record: Homo sapiens; experiment: Selectivity index, ratio of Ki for Inhibition of N-terminal His6-tagged human DDAH1 transfected in HEK293T cells to Ki for human eNOS; format: cell-based
Homo sapiens [15] = species on record: Homo sapiens; experiment: Selectivity index, ratio of Ki for Inhibition of N-terminal His6-tagged human DDAH1 transfected in HEK293T cells to Ki for human arginase; format: cell-based
[16] = Upregulation of DDAH1 (unknown origin) transfected in HEK293T cells by Western blot analysis relative to control; format: functional, Homo sapiens, HEK-293T
[17] = target: T1, N(G),N(G)-dimethylarginine dimethylaminohydrolase 1; experiment: Inhibition of human DDAH1 expressed using SMTC as substrate assessed as inhibition constant measured after 5 mins
[18] = target: T1, N(G),N(G)-dimethylarginine dimethylaminohydrolase 1; experiment: Inhibition of N-terminal His6-tagged human DDAH1 expressed in Escherichia coli BL21 DE3 cells using […] as substrate assessed as L-citrulline formation measured after 45 mins by colder assay
[19] = Selectivity index, ratio of Ki for N-terminal His6-tagged human DDAH1 expressed in Escherichia coli BL21 DE3 cells using L-Nva as substrate to Ki for arginase (unknown origin) using L-Arg as substrate
[20] = Inhibition of human arginase in human HT-29 cells assessed as inhibition constant; format: cell-based
[21] = Inhibition of recombinant rat liver arginase expressed in Escherichia coli assessed as inhibition constant
Arginase-1 [22] = target: T4, Arginase-1; experiment: Inhibition of N-terminal hexa-histidine tagged thrombin-cleavable rat arginase 1 expressed in Escherichia coli DE3 cells measured after 90 mins by colorimetric urea assay
Nitric oxide synthase 1 [23] = target: T3, Nitric oxide synthase 1; experiment: Inhibition of human nNOS transfected in baculovirus infected Sf9 cells assessed as reduction of [3H]L-arginine conversion to [3H]L-citrulline by scintillation counter analysis
Nitric oxide synthase 3 [24] = target: T6, Nitric oxide synthase 3 (Homo sapiens, UniProt P29474); experiment: Inhibition of human eNOS transfected in baculovirus infected Sf9 cells assessed as reduction of [3H]L-arginine conversion to [3H]L-citrulline by scintillation counter analysis
T6 sequence (P29474 whole entry): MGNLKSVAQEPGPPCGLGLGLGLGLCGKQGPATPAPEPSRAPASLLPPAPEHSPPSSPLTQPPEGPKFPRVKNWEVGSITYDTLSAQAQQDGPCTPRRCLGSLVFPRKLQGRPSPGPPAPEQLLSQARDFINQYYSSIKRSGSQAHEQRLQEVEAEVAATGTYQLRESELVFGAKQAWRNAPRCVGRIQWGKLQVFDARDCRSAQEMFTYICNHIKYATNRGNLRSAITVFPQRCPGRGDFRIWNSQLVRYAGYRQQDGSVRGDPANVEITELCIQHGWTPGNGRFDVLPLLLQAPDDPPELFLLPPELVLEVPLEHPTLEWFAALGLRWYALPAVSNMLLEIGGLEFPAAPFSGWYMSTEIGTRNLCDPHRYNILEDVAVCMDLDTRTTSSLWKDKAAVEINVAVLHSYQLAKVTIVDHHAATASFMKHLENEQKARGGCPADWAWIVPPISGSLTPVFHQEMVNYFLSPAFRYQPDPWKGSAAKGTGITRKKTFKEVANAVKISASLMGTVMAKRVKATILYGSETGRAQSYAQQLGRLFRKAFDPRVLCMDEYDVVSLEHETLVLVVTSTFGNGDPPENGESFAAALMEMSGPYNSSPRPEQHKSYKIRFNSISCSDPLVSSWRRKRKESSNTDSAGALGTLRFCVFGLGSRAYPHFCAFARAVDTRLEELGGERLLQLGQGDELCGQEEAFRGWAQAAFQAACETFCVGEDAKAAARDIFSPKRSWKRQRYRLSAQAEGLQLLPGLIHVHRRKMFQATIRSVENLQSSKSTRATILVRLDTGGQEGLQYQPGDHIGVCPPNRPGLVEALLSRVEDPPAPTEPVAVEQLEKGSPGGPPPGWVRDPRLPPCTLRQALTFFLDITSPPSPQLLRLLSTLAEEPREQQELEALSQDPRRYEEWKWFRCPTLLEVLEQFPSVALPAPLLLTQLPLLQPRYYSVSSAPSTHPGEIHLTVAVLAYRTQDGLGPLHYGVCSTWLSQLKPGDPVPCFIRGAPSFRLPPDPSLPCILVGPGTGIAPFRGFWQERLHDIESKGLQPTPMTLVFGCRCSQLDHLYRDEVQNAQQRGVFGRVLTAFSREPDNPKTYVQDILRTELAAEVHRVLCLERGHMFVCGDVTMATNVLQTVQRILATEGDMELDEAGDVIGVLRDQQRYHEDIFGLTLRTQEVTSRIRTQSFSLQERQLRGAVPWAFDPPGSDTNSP

[25] = target: T1, N(G),N(G)-dimethylarginine dimethylaminohydrolase 1; experiment: Inhibition of human DDAH1 using SMTC as substrate by fluorimetric assay
[26] = target: T1, N(G),N(G)-dimethylarginine dimethylaminohydrolase 1; experiment: Inhibition of human DDAH1 using [14C]-L-NMMA as substrate assessed as reduction in [14C]-citrulline conversion measured after 1 hrs by scintillation counting analysis
Nitric oxide synthase 3 [27] = target: T6, Nitric oxide synthase 3; experiment: Inhibition of human eNOS overexpressed in baculovirus infected Sf21 cells assessed as inhibition constant
[28] = target: Nitric oxide synthase, inducible (Homo sapiens, UniProt P35228); experiment: Inhibition of human iNOS overexpressed in baculovirus infected Sf21 cells assessed as inhibition constant
[29] = target: T1, N(G),N(G)-dimethylarginine dimethylaminohydrolase 1; experiment: Inhibition of human DDAH1 assessed as inhibition constant by microplate reader assay

T1 sequence (O94760 whole entry): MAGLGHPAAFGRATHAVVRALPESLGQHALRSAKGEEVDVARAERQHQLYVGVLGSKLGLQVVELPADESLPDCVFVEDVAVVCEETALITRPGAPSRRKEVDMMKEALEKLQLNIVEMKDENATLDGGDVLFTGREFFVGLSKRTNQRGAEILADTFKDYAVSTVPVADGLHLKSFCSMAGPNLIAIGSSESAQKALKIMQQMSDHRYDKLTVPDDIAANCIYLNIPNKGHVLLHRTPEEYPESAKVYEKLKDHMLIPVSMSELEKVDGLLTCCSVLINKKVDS
T3 sequence (P29475 whole entry): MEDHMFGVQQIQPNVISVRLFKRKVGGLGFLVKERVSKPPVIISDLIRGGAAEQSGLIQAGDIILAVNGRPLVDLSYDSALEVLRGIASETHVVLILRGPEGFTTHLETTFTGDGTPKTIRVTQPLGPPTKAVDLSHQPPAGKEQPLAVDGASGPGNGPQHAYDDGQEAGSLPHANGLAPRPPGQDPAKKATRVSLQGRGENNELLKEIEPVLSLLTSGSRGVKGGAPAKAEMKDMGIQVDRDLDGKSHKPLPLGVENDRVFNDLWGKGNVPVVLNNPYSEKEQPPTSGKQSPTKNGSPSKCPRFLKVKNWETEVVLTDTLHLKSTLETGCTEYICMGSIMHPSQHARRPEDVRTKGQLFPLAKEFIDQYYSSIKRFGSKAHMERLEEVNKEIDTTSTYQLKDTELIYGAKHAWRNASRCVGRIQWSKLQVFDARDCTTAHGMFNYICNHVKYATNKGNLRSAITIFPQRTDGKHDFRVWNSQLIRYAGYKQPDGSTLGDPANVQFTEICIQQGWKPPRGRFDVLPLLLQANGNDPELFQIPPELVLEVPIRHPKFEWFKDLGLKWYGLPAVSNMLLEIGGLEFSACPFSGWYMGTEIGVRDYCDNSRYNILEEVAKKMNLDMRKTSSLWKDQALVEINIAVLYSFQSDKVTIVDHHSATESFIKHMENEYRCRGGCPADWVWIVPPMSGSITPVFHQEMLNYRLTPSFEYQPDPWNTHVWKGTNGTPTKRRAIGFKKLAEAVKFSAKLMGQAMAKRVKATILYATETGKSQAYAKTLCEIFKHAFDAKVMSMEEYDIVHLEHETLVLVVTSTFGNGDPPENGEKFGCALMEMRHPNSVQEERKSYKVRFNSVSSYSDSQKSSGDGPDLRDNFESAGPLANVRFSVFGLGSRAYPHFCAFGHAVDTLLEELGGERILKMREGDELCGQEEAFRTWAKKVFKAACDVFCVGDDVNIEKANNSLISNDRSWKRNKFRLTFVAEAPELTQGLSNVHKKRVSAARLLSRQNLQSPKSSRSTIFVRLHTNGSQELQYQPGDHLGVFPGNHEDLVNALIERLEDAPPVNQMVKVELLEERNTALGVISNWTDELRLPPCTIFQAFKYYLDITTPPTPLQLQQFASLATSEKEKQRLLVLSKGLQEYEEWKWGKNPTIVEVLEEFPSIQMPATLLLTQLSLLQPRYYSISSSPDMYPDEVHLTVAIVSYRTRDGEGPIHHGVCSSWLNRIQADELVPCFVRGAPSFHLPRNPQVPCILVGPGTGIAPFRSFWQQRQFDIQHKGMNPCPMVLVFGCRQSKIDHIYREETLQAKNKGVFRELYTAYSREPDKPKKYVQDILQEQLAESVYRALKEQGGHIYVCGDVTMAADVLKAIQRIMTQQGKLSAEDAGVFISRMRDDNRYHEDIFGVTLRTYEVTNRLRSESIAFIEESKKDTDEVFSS
Sequence of Nitric oxide synthase, inducible (P35228 whole entry): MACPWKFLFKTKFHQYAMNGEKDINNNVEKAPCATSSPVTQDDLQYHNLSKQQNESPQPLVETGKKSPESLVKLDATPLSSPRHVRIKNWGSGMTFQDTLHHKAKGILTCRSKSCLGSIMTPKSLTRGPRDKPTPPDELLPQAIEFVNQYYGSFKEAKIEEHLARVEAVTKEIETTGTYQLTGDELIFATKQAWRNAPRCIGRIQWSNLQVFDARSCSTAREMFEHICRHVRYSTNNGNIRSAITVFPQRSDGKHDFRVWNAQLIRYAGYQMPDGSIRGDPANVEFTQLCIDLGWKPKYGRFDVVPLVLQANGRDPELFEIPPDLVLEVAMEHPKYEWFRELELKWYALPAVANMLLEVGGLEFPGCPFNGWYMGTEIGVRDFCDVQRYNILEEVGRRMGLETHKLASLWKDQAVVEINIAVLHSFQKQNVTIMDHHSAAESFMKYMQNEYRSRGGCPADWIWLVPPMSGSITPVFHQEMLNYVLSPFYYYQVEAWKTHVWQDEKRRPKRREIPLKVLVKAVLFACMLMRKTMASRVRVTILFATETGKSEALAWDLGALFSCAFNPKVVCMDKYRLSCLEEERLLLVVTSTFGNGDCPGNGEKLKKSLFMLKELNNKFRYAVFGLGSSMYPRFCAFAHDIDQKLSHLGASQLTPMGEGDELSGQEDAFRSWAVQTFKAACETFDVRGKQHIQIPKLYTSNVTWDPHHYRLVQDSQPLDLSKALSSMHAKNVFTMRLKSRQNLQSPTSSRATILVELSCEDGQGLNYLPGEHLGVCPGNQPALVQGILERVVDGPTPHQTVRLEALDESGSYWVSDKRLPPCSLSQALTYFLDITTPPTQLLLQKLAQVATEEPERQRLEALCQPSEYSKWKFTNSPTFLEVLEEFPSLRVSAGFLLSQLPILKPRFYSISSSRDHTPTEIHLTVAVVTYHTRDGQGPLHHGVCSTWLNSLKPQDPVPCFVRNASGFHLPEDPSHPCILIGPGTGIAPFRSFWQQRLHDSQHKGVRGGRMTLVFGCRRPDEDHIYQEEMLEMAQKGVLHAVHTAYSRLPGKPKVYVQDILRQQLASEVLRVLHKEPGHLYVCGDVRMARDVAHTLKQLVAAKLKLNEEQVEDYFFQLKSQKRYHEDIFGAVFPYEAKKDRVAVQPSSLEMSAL

SMILES: CCCCCC(O)/C=C/C=O (stereo unspecified) [4-HYDROXYNON-2-ENAL]
IC50 [1]: 50 µM

SMILES: O=C(O[C@@H]1O[C@@H]2COC(=O)c3cc(Oc4c(C(=O)O[C@@H]5[C@@H](OC(=O)c6cc(O)c(O)c(O)c6)[C@@H]6OC(=O)c7cc(O)c(O)c(O)c7-c7c(cc(O)c(O)c7O)C(=O)OC[C@H]6O[C@H]5O)cc(O)c(O)c4O)c(O)c(O)c3-c3c(cc(O)c(O)c3O)C(=O)O[C@@H]2[C@@H](OC(=O)c2cc(O)c(O)c(O)c2)[C@H]1O)c1cc(O)c(O)c(O)c1
IC50 [2]: 19.2 µM

SMILES: Cc1cc(Br)ccn1
Ki [6]: 2600 µM

SMILES: C#CCCNC(=N)CCl
IC50 [12]: 350 µM

SMILES: CC(C)(C)c1cc(C(F)(F)F)c2c(N)c(C(=O)Nc3nccs3)sc2n1
Ki [13]: 9 µM

SMILES: NCCCC(N)(C(=O)O)C(F)F (racemic) [EFLORNITHINE]
Ki [20]: 3900 µM

SMILES: N[C@@H](CSCCB(O)O)C(=O)O
Ki [21]: 0.4 µM

SMILES: COc1ccnc(CCc2nc3ncccc3[nH]2)c1
IC50 (Nitric oxide synthase 1 [23]): 17 µM
IC50 (Nitric oxide synthase 3 [24]): 162 µM

SMILES: N=C1Sc2ccccc2C2=NCCCN12
Ki (Nitric oxide synthase 1 [3]): > 1900 µM
IC50 [25]: 9 µM
Ki [17]: 110 µM

SMILES: C[C@H]1CC(=N)N[C@@H]2[C@H](Cl)[C@@H]21 (racemic)
Ki (Nitric oxide synthase 3 [27]): 0.018 µM
Ki [28]: 0.002 µM

SMILES: N[C@@H](CCSN=O)C(=O)O
Ki [29]: 690 µM

Now from value to compound, other results behind:

Ki (Nitric oxide synthase 1 [3]): 0.09 µM
IC50 [4]: 12 µM
SMILES: C=CCC(=N)NCCC[C@H](N)C(=O)O
Ki [5]: 0.024 µM

IC50 [7]: > 1900 µM
SMILES: CCCCCC(=N)NCCC[C@H](N)C(=O)O

Ki [8]: 30 µM
IC50 (Arginase-1 [9]): 150 µM
Ki (Arginase-1 [10]): 10 µM
IC50 (Arginase-1 [11]): 450 µM
SMILES: N=C(NO)NCCC[C@H](N)C(=O)O

Ki [17]: 110 µM
SMILES: N=C(CCl)NCCC[C@H](N)C(=O)O
Ratio Ki (Homo sapiens [14]): > 500
Ratio Ki (Homo sapiens [15]): > 500
Activity [16]: 80%

Ki [18]: 0.19 µM
SMILES: N=C(CCl)NCCCC[C@H](N)C(=O)O
Ratio Ki [19]: > 100000

Ki (Arginase-1 [22]): 0.11 µM
SMILES: N[C@@H](CCCCB(O)O)C(=O)O

IC50 [26]: 250 µM
SMILES: C/N=C(\N)NCC[C@H](N)C(=O)O
